The subject of the assay is 292921-168-R-J2-PDC KRAS tumor spheroid viability. The assay can be described thus: Anticancer human tumor 292921-168-R-J2-PDC patient-derived pancreatic carcinoma cell line growth inhibition [KRAS2]. To be noted: spheroids with HUVEC and MSC; for viability, T/C: stronger effect = lower value. The source says: Multicellular complex tumor spheroid response to RAS pathway inhibitors in combination with a targeted agents in patient-derived cell lines with oncogenic KRAS variants from multiple cancer types
A high-throughput screen of multi-cell type tumor spheroids was designed to identify active combinations of targeted small molecules and KRAS pathway inhibitors. Complex spheroids include a stromal component modeled by human endothelial cells (HUVEC) and fibroblasts modeled by human mesenchymal stem cells (MSCs). The concentration ranges selected for each drug and investigational agent were based upon clinically achievable concentrations if the clinical Cmax of the agent was known.
Compounds. The drugs and investigational agents: BI-3406 (NSC825286), BAY-293 (NSC824723), batoprotafib (TNO155; NSC825523), sotorasib (AMG 510; NSC818433), MRTX1257 (NSC819558), elimusertib (BAY 1895344; NSC800525), molibresib (GSK525762; NSC774829), temuterkib (LY3214996; NSC803410), venetoclax (NSC766270), alisertib (NSC759677), olaparib (NSC753686), talazoparib (NSC767125), erdafitinib (NSC781556), ipatasertib (NSC767898), cabozantinib (NSC761068), nintedanib (NSC756659), abemaciclib (NSC768073), docetaxel (NSC628503), trametinib (NSC758246), and sapanisertib (NSC764658) were obtained from the National Cancer Institute (NCI) Developmental Therapeutics Program Chemical Repository. The FDA-approved anticancer drug set is available from the Developmental Therapeutics Program. […] The stock solutions were prepared in dimethyl sulfoxide (DMSO, Sigma-Aldrich, St. Louis, MO, cat. D2650) at 800-fold the tested concentration and stored at -70 degrees C prior to their use. All drugs and investigational agents were tested over a range starting from a high concentration at or near the clinical Cmax and decreasing in half-log increments. If the clinical Cmax for an agent had not been determined, the highest concentration tested was 10 microM.
Cell Culture. All cells were maintained in an incubator at 37 degrees C and 5% CO2 with 95% humidity. The PDC lines were cultured according to standard operating procedures established by the NCI PDMR (https://pdmr.cancer.gov/sops/default.htm). Briefly, all PDCs were thawed and cultured in Matrigel-coated flasks prepared with a working solution of 1X Ham's F-12 nutrient mix, without supplementation (Invitrogen, Waltham, MA, cat. 11765054), 100 U/mL penicillin-streptomycin (Invitrogen, cat. 15140122), and 2.5% Matrigel (Corning Inc., Corning, NY, cat. 354248) for the first three passages. All PDCs were cultured in complete DMEM/F-12 media containing advanced DMEM/F-12 (Invitrogen, cat. 12634028), 4.9% defined fetal bovine serum, heat inactivated (HyClone Laboratories Inc., Logan, UT, cat. SH30070.03HI), 389 ng/mL hydrocortisone (Sigma-Aldrich, cat. H4001), 9.7 ng/mL human EGF recombinant protein (Invitrogen, cat. PHG0313), 23.4 microg/mL adenine (Sigma-Aldrich, cat. A2786), 97.3 U/mL penicillin-streptomycin (Invitrogen, cat. 15140122), 1.9 mM L-glutamine (Invitrogen, cat. 25030081), and 9.7 microM Y-27632 dihydrochloride (Tocris Bioscience, Bristol, United Kingdom, cat. 1254). The PDCs were cultured in complete DMEM/F12 media without 9.7 microM Y-27632 dihydrochloride for at least two passages prior to the screen. The established cell line HOP-62 was cultured in RPMI 1640 medium, HEPES (Invitrogen, cat. 22400105) with 10% defined fetal bovine serum (HyClone Laboratories Inc., cat. SH30070.03) and 2 mM L-glutamine (Invitrogen, cat. 25030081). The pooled donor HUVEC were cultured in endothelial cell growth medium 2 (PromoCell, Heidelberg, Germany, cat. C-22011) and the hMSC were cultured in mesenchymal stem cell growth medium 2 (PromoCell, cat. C-28009). For all experiments, HUVEC and hMSC were used at passages </=5, while the malignant cell lines were used at passages </=15. […]

Results on two compounds are retold here after PubChem BioAssay AID1963870 (Molecular Pharmacology Branch, DTP, NCI, 2024).

For orientation: viability, T/C means the ratio of treated to control. What is called IC50 is the midpoint of a concentration-inhibition curve.
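Further: drug exposure lasted seven days after spheroids formed for three days.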
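Wherever viability, T/C is given: percent of DMSO vehicle control viability which is 100%.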

In the case of `CC(C)n1nc(-c2ccc3oc(N)nc3c2)c2c(N)ncnc21`, the viability, T/C (compound 0.001 µM) was 61.9% [middle of 5 runs]; the viability, T/C (compound 0.00316 µM) was 48.2% [middle of 5 runs]; the viability, T/C (compound 0.01 µM) was 35.1% [middle of 5 runs]; the viability, T/C (compound 0.0316 µM) is 27.3% [middle of 5 runs]; the viability, T/C (compound 0.1 µM) was 22.6% [middle of 5 runs]. In addition, the IC50 (curve of compound) is 2.46 nM [middle of 5 runs].

In the case of `Cn1ncnc1[C@H]1c2n[nH]c(=O)c3cc(F)cc(c23)N[C@@H]1c1ccc(F)cc1` + C=CC(=O)N1CCN(c2nc(OCC3CCCN3C)nc3c2CCN(c2cccc4cccc(C)c24)C3)CC1CC#N, the IC50 was > 100 nM (curve of first compound, second compound 0.0316 µM); > 100 nM (curve of first compound, second compound 0.1 µM); 81.9 nM (curve of first compound, second compound 0.316 µM); < 0.316 nM (curve of first compound, second compound 1 µM); < 0.316 nM (curve of first compound, second compound 3.16 µM). The viability, T/C by setting is: (second compound 0.0316 µM, first compound 0.000316 µM) 99.5%; (second compound 0.0316 µM, first compound 0.001 µM) 93%; (second compound 0.0316 µM, first compound 0.00316 µM) 93.2%; (second compound 0.0316 µM, first compound 0.01 µM) 93.6%; (second compound 0.0316 µM, first compound 0.0316 µM) 81.7%; (second compound 0.0316 µM, first compound 0.1 µM) 67.3%. Also, the viability, T/C runs as follows: (second compound 0.1 µM, first compound 0.000316 µM) 96.7%; (second compound 0.1 µM, first compound 0.001 µM) 93.5%; (second compound 0.1 µM, first compound 0.00316 µM) 91.7%; (second compound 0.1 µM, first compound 0.01 µM) 83.6%; (second compound 0.1 µM, first compound 0.0316 µM) 77.6%; (second compound 0.1 µM, first compound 0.1 µM) 63.7%. Besides, the viability, T/C is 88.1% (second compound 0.316 µM, first compound 0.000316 µM); 82.1% (second compound 0.316 µM, first compound 0.001 µM); 72.9% (second compound 0.316 µM, first compound 0.00316 µM); 74.9% (second compound 0.316 µM, first compound 0.01 µM); 65% (second compound 0.316 µM, first compound 0.0316 µM); 46.4% (second compound 0.316 µM, first compound 0.1 µM). The viability, T/C was 42.1% (second compound 1 µM, first compound 0.000316 µM); 42.9% (second compound 1 µM, first compound 0.001 µM); 37.1% (second compound 1 µM, first compound 0.00316 µM); 32.5% (second compound 1 µM, first compound 0.01 µM); 29.8% (second compound 1 µM, first compound 0.0316 µM); 28.3% (second compound 1 µM, first compound 0.1 µM). Moreover, the viability, T/C (second compound 3.16 µM, first compound 0.000316 µM) was 0.3%; the viability, T/C (second compound 3.16 µM, first compound 0.001 µM) was 0.12%; the viability, T/C (second compound 3.16 µM, first compound 0.00316 µM) is 0.12%; the viability, T/C (second compound 3.16 µM, first compound 0.01 µM) was 0.11%; the viability, T/C (second compound 3.16 µM, first compound 0.0316 µM) was 0.13%; the viability, T/C (second compound 3.16 µM, first compound 0.1 µM) was 0.17%.
